{"source": "patent US20260285850A1", "about": "“SUBSTITUTED OXAZOLIDINONES AND IMIDAZOLINONES AS HERBICIDES” (FMC CORPORATION, priority 2023, published 2026)", "assay_type_in_all_cases": "in vivo", "key": {"[1]": {"tested_on": "green foxtail (Setaria viridis)", "assay": "Test A postemergence application, visual injury rating 0-100", "how_it_was_run": "(§1)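 Visual injury ratings (0, no effect; 100, complete control) were assigned relative to untreated plants 10 days after treatment. Test chemicals, formulated with a surfactant-containing non-phytotoxic solvent, were applied in loam-sand soil either as a directed soil spray before emergence or to emerged plants, and plants were kept in a greenhouse.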"}, "[2]": {"tested_on": "horseweed (Erigeron canadensis)", "assay": "Test A postemergence application, visual injury rating 0-100", "how_it_was_run": "as §1"}, "[3]": {"tested_on": "ragweed (common ragweed, Ambrosia artemisiifolia)", "assay": "Test A postemergence application, visual injury rating 0-100", "how_it_was_run": "as §1"}, "[4]": {"tested_on": "kochia (Bassia scoparia)", "assay": "Test A postemergence application, visual injury rating 0-100", "how_it_was_run": "as §1"}, "[5]": {"tested_on": "ryegrass, Italian (italian ryegrass, Lolium multiflorum)", "assay": "Test A postemergence application, visual injury rating 0-100", "how_it_was_run": "as §1"}, "[6]": {"tested_on": "palmer (palmer amaranth, palmer pigweed, Amaranthus palmeri)", "assay": "Test A postemergence application, visual injury rating 0-100", "how_it_was_run": "as §1"}, "[7]": {"tested_on": "corn (Zea mays)", "assay": "Test A postemergence application, visual injury rating 0-100", "how_it_was_run": "as §1"}, "[8]": {"tested_on": "barnyardgrass (Echinochloa crus-galli)", "assay": "Test A postemergence application, visual injury rating 0-100", "how_it_was_run": "as §1"}, "[9]": {"tested_on": "oat, wild (wild oat, Avena fatua)", "assay": "Test A postemergence application, visual injury rating 0-100", "how_it_was_run": "as §1"}, "[10]": {"tested_on": "blackgrass (Alopecurus myosuroides)", "assay": "Test A postemergence application, visual injury rating 0-100", "how_it_was_run": "as §1"}, "[11]": {"tested_on": "wheat (Triticum aestivum)", "assay": "Test A postemergence application, visual injury rating 0-100", "how_it_was_run": "as §1"}, "[12]": {"tested_on": "galium (catchweed bedstraw, Galium aparine)", "assay": "Test A postemergence application, visual injury rating 0-100", "how_it_was_run": "as §1"}, "[13]": {"tested_on": "soybean (Glycine max)", "assay": "Test A postemergence application, visual injury rating 0-100", "how_it_was_run": "as §1"}, "[14]": {"tested_on": "green foxtail (Setaria viridis)", "assay": "Test A preemergence soil spray, visual injury rating 0-100", "details": "10 days", "how_it_was_run": "as §1"}, "[15]": {"tested_on": "ragweed (common ragweed, Ambrosia artemisiifolia)", "assay": "Test A preemergence soil spray, visual injury rating 0-100", "details": "10 days", "how_it_was_run": "as §1"}, "[16]": {"tested_on": "kochia (Bassia scoparia)", "assay": "Test A preemergence soil spray, visual injury rating 0-100", "details": "10 days", "how_it_was_run": "as §1"}, "[17]": {"tested_on": "ryegrass, Italian (italian ryegrass, Lolium multiflorum)", "assay": "Test A preemergence soil spray, visual injury rating 0-100", "details": "10 days", "how_it_was_run": "as §1"}, "[18]": {"tested_on": "corn (Zea mays)", "assay": "Test A preemergence soil spray, visual injury rating 0-100", "details": "10 days", "how_it_was_run": "as §1"}, "[19]": {"tested_on": "barnyardgrass (Echinochloa crus-galli)", "assay": "Test A preemergence soil spray, visual injury rating 0-100", "details": "10 days", "how_it_was_run": "as §1"}, "[20]": {"tested_on": "oat, wild (wild oat, Avena fatua)", "assay": "Test A preemergence soil spray, visual injury rating 0-100", "details": "10 days", "how_it_was_run": "as §1"}, "[21]": {"tested_on": "blackgrass (Alopecurus myosuroides)", "assay": "Test A preemergence soil spray, visual injury rating 0-100", "details": "10 days", "how_it_was_run": "as §1"}, "[22]": {"tested_on": "wheat (Triticum aestivum)", "assay": "Test A preemergence soil spray, visual injury rating 0-100", "details": "10 days", "how_it_was_run": "as §1"}, "[23]": {"tested_on": "soybean (Glycine max)", "assay": "Test A preemergence soil spray, visual injury rating 0-100", "details": "10 days", "how_it_was_run": "as §1"}, "[24]": {"tested_on": "sedge, umbrella (small-flower umbrella sedge, Cyperus difformis)", "assay": "Test B flooded paddy test, visual plant response rating 0-100", "details": "250 g ai/ha, Flood, applied to paddy water, evaluated after 13 days", "how_it_was_run": "(§2)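 Each species was raised to two leaves before flooding to a 3 cm depth and dosing the water with compound. Injury was assessed by eye after 13 days under greenhouse conditions.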"}, "[25]": {"tested_on": "rice (Oryza sativa)", "assay": "Test B flooded paddy test, visual plant response rating 0-100", "details": "250 g ai/ha, Flood, applied to paddy water, evaluated after 13 days", "how_it_was_run": "as §2"}, "[26]": {"tested_on": "ducksalad (Heteranthera limosa)", "assay": "Test B flooded paddy test, visual plant response rating 0-100", "details": "250 g ai/ha, Flood, applied to paddy water, evaluated after 13 days", "how_it_was_run": "as §2"}, "[27]": {"tested_on": "barnyardgrass (Echinochloa crusgalli)", "assay": "Test B flooded paddy test, visual plant response rating 0-100", "details": "250 g ai/ha, Flood, applied to paddy water, evaluated after 13 days", "how_it_was_run": "as §2"}, "[28]": {"details": "62 g ai/ha, postemergence, 10 days, 0 = no effect, 100 = complete control"}, "[29]": {"details": "Postemergence, 16 g ai/ha, greenhouse 10 days, 0 no effect, 100 complete control"}, "[30]": {"details": "62 g ai/ha, 0 = no effect, 100 = complete control"}}}
{"smiles": "CC1(C(=O)NC2CC=C(C(=O)OCC(F)(F)F)C2)CN(c2cc(F)cc(Cl)c2)C(=O)O1", "note": "(centres unmarked) [Compound 141]", "values": [{"measurement": "Foxtail, Green plant response rating (0-100)", "setting": "[1]; [28]", "value": 90}, {"measurement": "Foxtail, Green plant response rating (0 to 100 scale)", "setting": "[1]; [29]", "value": 90}, {"measurement": "Horseweed plant response rating (0-100)", "setting": "[2]; [28]", "value": 80}, {"measurement": "Horseweed plant response rating (0 to 100 scale)", "setting": "[2]; [29]", "value": 60}, {"measurement": "Ragweed plant response rating (0-100)", "setting": "[3]; [28]", "value": 60}, {"measurement": "Ragweed plant response rating (0 to 100 scale)", "setting": "[3]; [29]", "value": 30}, {"measurement": "Kochia plant response rating (0-100)", "setting": "[4]; [28]", "value": 90}, {"measurement": "Kochia plant response rating (0 to 100 scale)", "setting": "[4]; [29]", "value": 70}, {"measurement": "Ryegrass, Italian plant response rating (0-100)", "setting": "[5]; [28]", "value": 80}, {"measurement": "Ryegrass, Italian plant response rating (0 to 100 scale)", "setting": "[5]; [29]", "value": 20}, {"measurement": "Pigweed, Palmer plant response rating (0-100)", "setting": "[6]; [28]", "value": 90}, {"measurement": "Pigweed, Palmer plant response rating (0 to 100 scale)", "setting": "[6]; [29]", "value": 70}, {"measurement": "Corn plant response rating (0-100)", "setting": "[7]; [28]", "value": 100}, {"measurement": "Corn plant response rating (0 to 100 scale)", "setting": "[7]; [29]", "value": 100}, {"measurement": "Barnyardgrass plant response rating (0-100)", "setting": "[8]; [28]", "value": 100}, {"measurement": "Barnyardgrass plant response rating (0 to 100 scale)", "setting": "[8]; [29]", "value": 100}, {"measurement": "Oat, Wild plant response rating (0-100)", "setting": "[9]; [28]", "value": 80}, {"measurement": "Oat, Wild plant response rating (0 to 100 scale)", "setting": "[9]; [29]", "value": 20}, {"measurement": "Blackgrass plant response rating (0-100)", "setting": "[10]; [28]", "value": 90}, {"measurement": "Blackgrass plant response rating (0 to 100 scale)", "setting": "[10]; [29]", "value": 90}, {"measurement": "Wheat plant response rating (0-100)", "setting": "[11]; [28]", "value": 90}, {"measurement": "Wheat plant response rating (0 to 100 scale)", "setting": "[11]; [29]", "value": 90}, {"measurement": "Galium plant response rating (0-100)", "setting": "[12]; [28]", "value": 80}, {"measurement": "Galium plant response rating (0 to 100 scale)", "setting": "[12]; [29]", "value": 80}, {"measurement": "Soybean plant response rating (0-100)", "setting": "[13]; [28]", "value": 70}, {"measurement": "Soybean plant response rating (0 to 100 scale)", "setting": "[13]; [29]", "value": 70}, {"measurement": "Foxtail, Green plant response rating", "setting": "[14]; 16 g ai/ha, 0 to 100 scale", "value": 20}, {"measurement": "Foxtail, Green plant response rating (0-100)", "setting": "[14]; [30]", "value": 90}, {"measurement": "Ragweed plant response rating", "setting": "[15]; 16 g ai/ha, 0 to 100 scale", "value": 0}, {"measurement": "Ragweed plant response rating (0-100)", "setting": "[15]; [30]", "value": 0}, {"measurement": "Kochia plant response rating", "setting": "[16]; 16 g ai/ha, 0 to 100 scale", "value": 0}, {"measurement": "Kochia plant response rating (0-100)", "setting": "[16]; [30]", "value": 80}, {"measurement": "Ryegrass, Italian plant response rating", "setting": "[17]; 16 g ai/ha, 0 to 100 scale", "value": 50}, {"measurement": "Ryegrass, Italian plant response rating (0-100)", "setting": "[17]; [30]", "value": 90}, {"measurement": "Corn plant response rating", "setting": "[18]; 16 g ai/ha, 0 to 100 scale", "value": 10}, {"measurement": "Corn plant response rating (0-100)", "setting": "[18]; [30]", "value": 70}, {"measurement": "Barnyardgrass plant response rating", "setting": "[19]; 16 g ai/ha, 0 to 100 scale", "value": 0}, {"measurement": "Barnyardgrass plant response rating (0-100)", "setting": "[19]; [30]", "value": 70}, {"measurement": "Oat, Wild plant response rating", "setting": "[20]; 16 g ai/ha, 0 to 100 scale", "value": 0}, {"measurement": "Oat, Wild plant response rating (0-100)", "setting": "[20]; [30]", "value": 40}, {"measurement": "Blackgrass plant response rating", "setting": "[21]; 16 g ai/ha, 0 to 100 scale", "value": 0}, {"measurement": "Blackgrass plant response rating (0-100)", "setting": "[21]; [30]", "value": 80}, {"measurement": "Wheat plant response rating", "setting": "[22]; 16 g ai/ha, 0 to 100 scale", "value": 80}, {"measurement": "Wheat plant response rating (0-100)", "setting": "[22]; [30]", "value": 90}, {"measurement": "Soybean plant response rating", "setting": "[23]; 16 g ai/ha, 0 to 100 scale", "value": 0}, {"measurement": "Soybean plant response rating (0-100)", "setting": "[23]; [30]", "value": 70}, {"measurement": "Plant response rating, Sedge, Umbrella (0 to 100 scale, 0 is no effect and 100 is complete control)", "setting": "[24]", "value": 85}, {"measurement": "Plant response rating, Rice (0 to 100 scale, 0 is no effect and 100 is complete control)", "setting": "[25]", "value": 50}, {"measurement": "Plant response rating, Ducksalad (0 to 100 scale, 0 is no effect and 100 is complete control)", "setting": "[26]", "value": 65}, {"measurement": "Plant response rating, Barnyardgrass (0 to 100 scale, 0 is no effect and 100 is complete control)", "setting": "[27]", "value": 90}]}
